What was measured:
Test in all cases: microbe, parasite or virus in culture
Format in all cases: cell-based
[1] = tested on: influenza A virus minigenome (PB2, PB1, PA, NP; luciferase reporter) in 293T cells, RNP_CAL; conditions: HEK-293T, 48 h, read-out: RNP_CAL_EC50
[2] = tested on: influenza A virus minigenome (PB2, PB1, PA, NP; luciferase reporter) in 293T cells, RNP_Alaska; conditions: HEK-293T, 48 h
[3] = tested on: influenza A virus minigenome (PB2, PB1, PA, NP; luciferase reporter) in 293T cells, RNP_Hubei; conditions: HEK-293T, 48 h

Work on `COC(=O)C(C)(C)OC(=O)OCOc1c2n(ncc1=O)[C@@H]([C@H](c1cccc(F)c1)c1cccc(F)c1F)[C@H]1CCCN1C2=O` [Example 104, methyl 2-((((((9aR,10S)-10-((R)-(2,3-difluorophenyl)(3-fluorophenyl)methyl)-3,5-dioxo-3,5,8,9,9a,10-hexahydro-7H-pyrrolo[1′,2′:4,5]pyrazino[1,2-b]pyridazin-4-yl)oxy)methoxy)carbonyl)oxy)-2-methylpropanoate] yielded an EC50 [1] of 100 to 1000 nM, an EC50 [2] of 100 to 1000 nM and an EC50 [3] of 100 to 1000 nM.
`CCOC(=O)OC(C)Oc1c2n(ncc1=O)[C@@H]([C@H](c1ccccc1)c1cccc(F)c1F)[C@H]1CCCN1C2=O` (stereo partly drawn) [Example 56, 1-(((9aR,10S)-10-((R)-(2,3-difluorophenyl)(phenyl)methyl)-3,5-dioxo-3,5,8,9,9a,10-hexahydro-7H-pyrrolo[1′,2′:4,5]pyrazino[1,2-b]pyridazin-4-yl)oxy)ethyl ethyl carbonate] showed an EC50 [1] of 100 to 1000 nM, an EC50 [2] of 100 to 1000 nM and an EC50 [3] of less than 100 nM.
`Cc1c([C@@H](c2cccc(F)c2)[C@H]2[C@H]3CCCN3C(=O)c3c(O)c(=O)cnn32)ccc(F)c1F` [Example 11, (9aR,10S)-10-((R)-(3,4-difluoro-2-methylphenyl)(3-fluorophenyl)methyl)-4-hydroxy-8,9,9a,10-tetrahydro-7H-pyrrolo[1′,2′:4,5]pyrazino[1,2-b]pyridazine-3,5-dione] was tested, and the EC50 [1] was less than 100 nM, the EC50 [2] was less than 100 nM and the EC50 [3] was less than 100 nM.
Molecule `COc1cccc([C@H](c2ccc(F)cc2)[C@H]2[C@H]3CCCN3C(=O)c3c(O)c(=O)cnn32)c1` [Example 9, (9aR,10S)-10-((S)-(4-fluorophenyl)(3-methoxyphenyl)methyl)-4-hydroxy-8,9,9a,10-tetrahydro-7H-pyrrolo[1′,2′:4,5]pyrazino[1,2-b]pyridazine-3,5-dione] has an EC50 [1] of 100 to 1000 nM, an EC50 [2] of 100 to 1000 nM and an EC50 [3] of less than 100 nM.
Work on `CCC(=O)Oc1c2n(ncc1=O)[C@@H]([C@H](c1ccccc1)c1cccc(F)c1F)[C@H]1CCCN1C2=O` [Example 59, (9aR,10S)-10-((R)-(2,3-difluorophenyl)(phenyl)methyl)-3,5-dioxo-3,5,8,9,9a,10-hexahydro-7H-pyrrolo[1′,2′:4,5]pyrazino[1,2-b]pyridazin-4-yl propionate] yielded an EC50 [1] of less than 100 nM, an EC50 [2] of less than 100 nM and an EC50 [3] of less than 100 nM.
In the case of `COC(=O)C(C)(C)OC(=O)OCOc1c2n(ncc1=O)[C@@H]([C@H](c1ccccc1)c1cccc(F)c1F)[C@H]1CCCN1C2=O` [Example 42, methyl 2-((((((9aR,10S)-10-((R)-(2,3-difluorophenyl)(phenyl)methyl)-3,5-dioxo-3,5,8,9,9a,10-hexahydro-7H-pyrrolo[1′,2′:4,5]pyrazino[1,2-b]pyridazin-4-yl)oxy)methoxy)carbonyl)oxy)-2-methylpropanoate], the EC50 [1] is reported as 100 to 1000 nM, the EC50 [2] is reported as 100 to 1000 nM and the EC50 [3] is reported as 100 to 1000 nM.
In the case of `O=C1c2c(O)c(=O)cnn2[C@@H]([C@H](c2ccc(F)cc2)c2ccc(C(F)(F)F)cc2)[C@H]2CCCN12` [Example 21, (9aR,10S)-10-((S)-(4-fluorophenyl)(4-(trifluoromethyl)phenyl)methyl)-4-hydroxy-8,9,9a,10-tetrahydro-7H-pyrrolo[1′,2′:4,5]pyrazino[1,2-b]pyridazine-3,5-dione], the EC50 [1] is reported as 100 to 1000 nM, the EC50 [2] is reported as 100 to 1000 nM and the EC50 [3] is reported as 100 to 1000 nM.
Work on `COC(C)(C)CC(=O)Oc1c2n(ncc1=O)[C@@H]([C@H](c1ccccc1)c1cccc(F)c1F)[C@H]1CCCN1C2=O` [Example 39, (9aR,10S)-10-((R)-(2,3-difluorophenyl)(phenyl)methyl)-3,5-dioxo-3,5,8,9,9a,10-hexahydro-7H-pyrrolo[1′,2′:4,5]pyrazino[1,2-b]pyridazin-4-yl 3-methoxy-3-methylbutanoate] yielded an EC50 [1] of less than 100 nM, an EC50 [2] of less than 100 nM and an EC50 [3] of less than 100 nM.
`CC(=O)OCOc1c2n(ncc1=O)[C@@H]([C@H](c1ccccc1)c1cccc(F)c1F)[C@H]1CCCN1C2=O` [Example 76, (((9aR,10S)-10-((R)-(2,3-difluorophenyl)(phenyl)methyl)-3,5-dioxo-3,5,8,9,9a,10-hexahydro-7H-pyrrolo[1′,2′:4,5]pyrazino[1,2-b]pyridazin-4-yl)oxy)methyl acetate] was tested, and the EC50 [1] was less than 100 nM, the EC50 [2] was less than 100 nM and the EC50 [3] was less than 100 nM.
`COCCC(=O)Oc1c2n(ncc1=O)[C@@H]([C@H](c1ccccc1)c1cccc(F)c1F)[C@H]1CCCN1C2=O` [Example 61, (9aR,10S)-10-((R)-(2,3-difluorophenyl)(phenyl)methyl)-3,5-dioxo-3,5,8,9,9a,10-hexahydro-7H-pyrrolo[1′,2′:4,5]pyrazino[1,2-b]pyridazin-4-yl 3-methoxypropanoate] gave an EC50 [1] of less than 100 nM, an EC50 [2] of less than 100 nM and an EC50 [3] of less than 100 nM.
In the case of `CCN(CC)C(=O)Oc1c2n(ncc1=O)[C@@H]([C@H](c1ccccc1)c1cccc(F)c1F)[C@H]1CCCN1C2=O` [Example 71, (9aR,10S)-10-((R)-(2,3-difluorophenyl)(phenyl)methyl)-3,5-dioxo-3,5,8,9,9a,10-hexahydro-7H-pyrrolo[1′,2′:4,5]pyrazino[1,2-b]pyridazin-4-yl diethylcarbamate], the EC50 [1] is reported as 100 to 1000 nM, the EC50 [2] is reported as 100 to 1000 nM and the EC50 [3] is reported as 100 to 1000 nM.
`CC(C)CC(=O)Oc1c2n(ncc1=O)[C@@H]([C@H](c1ccccc1)c1cccc(F)c1F)[C@H]1CCCN1C2=O` [Example 60, (9aR,10S)-10-((R)-(2,3-difluorophenyl)(phenyl)methyl)-3,5-dioxo-3,5,8,9,9a,10-hexahydro-7H-pyrrolo[1′,2′:4,5]pyrazino[1,2-b]pyridazin-4-yl 3-methylbutanoate] was tested, and the EC50 [1] was less than 100 nM, the EC50 [2] was less than 100 nM and the EC50 [3] was less than 100 nM.
With `CC(C)OC(=O)Oc1c2n(ncc1=O)[C@@H]([C@H](c1ccccc1)c1cccc(F)c1F)[C@H]1CCCN1C2=O` [Example 34, (9aR,10S)-10-((R)-(2,3-difluorophenyl)(phenyl)methyl)-3,5-dioxo-3,5,8,9,9a,10-hexahydro-7H-pyrrolo[1′,2′:4,5]pyrazino[1,2-b]pyridazin-4-yl isopropyl carbonate] the EC50 [1] was less than 100 nM, the EC50 [2] was less than 100 nM and the EC50 [3] was less than 100 nM.
`CN(C)C(=O)Oc1c2n(ncc1=O)[C@@H]([C@H](c1cccc(F)c1)c1cccc(F)c1F)[C@H]1CCCN1C2=O` [Example 96, (9aR,10S)-10-((R)-(2,3-difluorophenyl)(3-fluorophenyl)methyl)-3,5-dioxo-3,5,8,9,9a,10-hexahydro-7H-pyrrolo[1′,2′:4,5]pyrazino[1,2-b]pyridazin-4-yl dimethylcarbamate] showed an EC50 [1] of no less than 1000 nM, an EC50 [2] of no less than 1000 nM and an EC50 [3] of 100 to 1000 nM.
With `COc1cccc([C@@H](c2ccc(F)cc2)[C@H]2[C@H]3CCCN3C(=O)c3c(O)c(=O)cnn32)c1` [Example 24, (9aR,10S)-10-((R)-(4-fluorophenyl)(3-methoxyphenyl)methyl)-4-hydroxy-8,9,9a,10-tetrahydro-7H-pyrrolo[1′,2′:4,5]pyrazino[1,2-b]pyridazine-3,5-dione] the EC50 [1] was 100 to 1000 nM, the EC50 [2] was 100 to 1000 nM and the EC50 [3] was 100 to 1000 nM.
For `CC(C)(C)C(=O)OCOc1c2n(ncc1=O)[C@@H]([C@H](c1ccccc1)c1cccc(F)c1F)[C@H]1CCCN1C2=O` [Example 63, (((9aR,10S)-10-((R)-(2,3-difluorophenyl)(phenyl)methyl)-3,5-dioxo-3,5,8,9,9a,10-hexahydro-7H-pyrrolo[1′,2′:4,5]pyrazino[1,2-b]pyridazin-4-yl)oxy)methyl pivalate], the EC50 [1] was less than 100 nM, the EC50 [2] was less than 100 nM and the EC50 [3] was less than 100 nM.
With `CN1CCN(C(=O)OCOc2c3n(ncc2=O)[C@@H]([C@H](c2ccccc2)c2cccc(F)c2F)[C@H]2CCCN2C3=O)CC1` [Example 36, (((9aR,10S)-10-((R)-(2,3-difluorophenyl)(phenyl)methyl)-3,5-dioxo-3,5,8,9,9a,10-hexahydro-7H-pyrrolo[1′,2′:4,5]pyrazino[1,2-b]pyridazin-4-yl)oxy)methyl 4-methylpiperazine-1-carboxylate] the EC50 [1] was no less than 1000 nM, the EC50 [2] was no less than 1000 nM and the EC50 [3] was no less than 1000 nM.
For `O=C1c2c(O)c(=O)cnn2[C@@H]([C@H](c2ccccc2F)c2cccc(F)c2F)[C@H]2CCCN12` [Example 8, (9aR,10S)-10-((R)-(2,3-difluorophenyl)(2-fluorophenyl)methyl)-4-hydroxy-8,9,9a,10-tetrahydro-7H-pyrrolo[1′,2′:4,5]pyrazino[1,2-b]pyridazine-3,5-dione], the EC50 [1] was less than 100 nM, the EC50 [2] was less than 100 nM and the EC50 [3] was less than 100 nM.
Molecule `COCCC(=O)Oc1c2n(ncc1=O)[C@@H]([C@H](c1cccc(F)c1)c1cccc(F)c1F)[C@H]1CCCN1C2=O` [Example 112, (9aR,10S)-10-((R)-(2,3-difluorophenyl)(3-fluorophenyl)methyl)-3,5-dioxo-3,5,8,9,9a,10-hexahydro-7H-pyrrolo[1′,2′:4,5]pyrazino[1,2-b]pyridazin-4-yl 3-methoxypropanoate] has an EC50 [1] of less than 100 nM, an EC50 [2] of less than 100 nM and an EC50 [3] of less than 100 nM.
For `CCOC(=O)Oc1c2n(ncc1=O)[C@@H]([C@H](c1ccccc1)c1cccc(F)c1F)[C@H]1CCCN1C2=O` [Example 53, (9aR,10S)-10-((R)-(2,3-difluorophenyl)(phenyl)methyl)-3,5-dioxo-3,5,8,9,9a,10-hexahydro-7H-pyrrolo[1′,2′:4,5]pyrazino[1,2-b]pyridazin-4-yl ethyl carbonate], the EC50 [1] was less than 100 nM, the EC50 [2] was less than 100 nM and the EC50 [3] was less than 100 nM.
Molecule `O=C1c2c(O)c(=O)cnn2[C@@H]([C@@H](c2ccc(F)cc2)c2cccc(C(F)(F)F)c2)[C@H]2CCCN12` [Example 1, (9aR,10S)-10-((S)-(4-fluorophenyl)(3-(trifluoromethyl)phenyl)methyl)-4-hydroxy-8,9,9a,10-tetrahydro-7H-pyrrolo[1′,2′:4,5]pyrazino[1,2-b]pyridazine-3,5-dione] has an EC50 [1] of less than 100 nM, an EC50 [2] of less than 100 nM and an EC50 [3] of less than 100 nM.

— US12071441B2, “10-(di(phenyl)methyl)-4-hydroxy-8,9,9A,10-tetrahydro-7H-pyrrolo[1′,2′:4,5]pyrazino[1,2-b]pyridazine-3,5-dione derivatives and related compounds as inhibitors of the orthomyxovirus replication for treating influenza” (Novartis AG, priority 2018, dated 2024)
